Results reported in US20140193846A1, “NOVEL APOC-I ISOFORMS AND THEIR USE AS BIOMARKERS AND RISK FACTORS OF ATHEROSCLEROTIC DISEASE” (SCOTT & WHITE HEALTHCARE, priority 2011, published 2014).
“Also recorded” adds a separate entry of the source.

Experiments:
[1] = system: ASMC apoptosis mediated by HDL2 from subject 10; assay: Effect of N-SMase inhibitor on HDL2-induced ASMC apoptosis; format: cell-based, human; conditions: GW 4869 20 umol/L; for effect of inhibitor on HDL2-induced ASMC apoptosis (words): HDL2 from subject 10
Protocol: The same procedure described in detail by Kolmakova et al., Arterioscler. Thromb. Vasc. Biol., 24:264-269 (2004) was used. In brief, 10^3 human ASMC (Cambrex, Walkersville, Md.), were grown on sterilized glass cover slips in 6-well trays and treated with 2.5 μL of the various lipoprotein fractions per ml of medium. After 24 hour incubation, the medium was removed and cells were fixed and stained. The average ApoA-I concentration in the HDL2 and HDL3 fractions was ˜25 mg/dL and ˜40 mg/dL, respectively.
The effect of GW 4869 (20 umol/L), a noncompetitive inhibitor of N-SMase (Luberto C. et al., J. Biol Chem., 277(43):41128-41139 (2002)), on ASMC apoptosis mediated by HDL2 from subject 10 was studied and the results are shown in FIG. 9. […] The effect of HDL2 on apoptosis was also dose-dependent: when only 1 μl of HDL2 was used a 20.1% apoptosis of ASMC resulted as compared to ˜50% apoptosis when 2.5 μl HDL2 from the same subject was used.

[2] = system: ICAM-1 expression by HAECs; assay: ICAM-1 expression by HAECs exposed to lipoprotein fractions; format: cell-based, human; conditions: HAECs pre-treated with inhibitor
[3] = biological target: T1, lecithin-cholesterol acyl transferase (LCAT) (Homo sapiens, UniProt P04180); conditions: % of the activity demonstrated by apoA-I; cited from earlier work
T1 sequence (P04180 25-440): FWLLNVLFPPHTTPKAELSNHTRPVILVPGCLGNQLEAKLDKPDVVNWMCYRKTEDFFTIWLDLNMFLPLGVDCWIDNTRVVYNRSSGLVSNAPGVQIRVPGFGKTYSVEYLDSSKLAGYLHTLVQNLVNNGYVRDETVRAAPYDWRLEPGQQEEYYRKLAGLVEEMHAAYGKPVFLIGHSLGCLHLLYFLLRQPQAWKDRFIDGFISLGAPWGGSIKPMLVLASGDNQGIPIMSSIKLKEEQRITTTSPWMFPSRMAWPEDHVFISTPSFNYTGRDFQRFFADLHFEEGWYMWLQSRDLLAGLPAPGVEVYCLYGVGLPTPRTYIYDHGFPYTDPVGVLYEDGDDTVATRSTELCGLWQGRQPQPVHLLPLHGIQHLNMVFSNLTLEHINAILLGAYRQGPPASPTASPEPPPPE

[4] = system: Human aortic endothelial cells (HAECs); assay: Nitric oxide (NO) release from HAECs incubated with HDL sub-fractions (DAF fluorescence); format: cell-based; conditions: HAECs pretreated, then incubated with apoptotic HDL2
Protocol: Human aortic endothelial cells (HAECs) were incubated with HDL sub-fractions for 12 h from a subject with apoptotic HDL2 (and CAD) and a subject with non-apoptotic HDL2 (without CAD). The cells were then stained with 4′5′-diamino flourescein 2-diacetate (DAF) (Invitrogen/Molecular Probes, CA), a fluorescent probe that allows for real-time detection of NO. Following incubation cells were washed with phosphate buffered saline (PBS) to remove unbound dye and mounted on a drop of 10% glycerol in PBS and photographed by fluorescence microscopy.

O=C(/C=C/c1ccc(/C=C/C(=O)Nc2ccc(C3=NCCN3)cc2)cc1)Nc1ccc(C2=NCCN2)cc1 [GW4869]
number of apoptotic cells with HDL2 plus inhibitor ([1]; 1 μL HDL2 from subject 10, 20.1% without inhibitor): 1.19%
effect of inhibitor on HDL2-induced ASMC apoptosis (words) [1]: inhibits apoptosis
effect of inhibitor on HDL2-induced ASMC apoptosis (words) ([1]; listed as GW 4869): almost completely prevented HDL2-induced apoptosis

CNC(=N)NCCC[C@H](N)C(=O)O [NMLA, NG monomethyl-L-arginine]
effect of pre-treating HAECs on HDL2-increased ICAM-1 expression [2]: attenuated

ApoC-I: mature 57 amino acid apolipoprotein C-I protein set forth in SEQ ID NO:6 (TPDVSSALDKLKEFGNTLEDKARELIBRINKQSELSAKMREWFSETFQKVKELKIDS; listed as Homo sapiens)
LCAT stimulation, activity relative to apoA-I [3]: approximately 78%

S=C(S)N1CCCC1 [PDTC, Pyrrolidine dithiocarbamate]
effect of pretreatment on HDL2-induced NO release from HAECs [4]: markedly reduced NO release; also recorded: production of NO was blocked
effect of pre-treating HAECs on HDL2-increased ICAM-1 expression [2]: attenuated
